What was measured:
[1] = target: T1, engineered chimeric LGIC receptor SEQ ID NO:33 (α7-nAChR ligand binding domain with GlyRα1 Cys-loop, GlyRα1 ion pore domain) (Homo sapiens, UniProt P36544, F159M/H163T/I152M/R155K/V154L/W156N/Y151P); test: Two electrode voltage clamp currents in Xenopus oocytes expressing the receptor; format: cell-based
T1 construct: expressed in transfected cells; host or cells: Xenopus oocytes (cDNA injection)
Method: (§1) For Xenopus oocyte studies, injections of cDNAs encoding for ion channels at a final concentration of 0.04 μg/μL were performed using a proprietary automated injection device and receptor expression examined at least two days later. Oocytes were poked with two electrodes and their membrane potential maintained at −80 mV throughout the experiment. All recordings were performed at 18° C. and cells were superfused with OR2 medium containing in mM: NaCl 82.5, KCl 2.5, HEPES 5, CaCl2.2H2O 1.8, MgCl2.6H2O 1, pH 7.4. Recordings progressed if oocytes had sufficiently low holding current, in which case they were then subjected to ligand or test compound application (5-10 s wash intervals), with 100 s of wash in between doses. Currents evoked by acetylcholine or other agonists were recorded using an automated process equipped with standard two electrode voltage clamp configuration (TEVC). Data were captured and analyzed using HiQScreen proprietary data acquisition and analysis software running under Matlab (Mathworks Inc.). Acetylcholine was prepared as a concentrated stock solution (10-1 M) in water and then diluted in the recording medium to obtain the desired test concentration. Nicotine was diluted in water as stock solution (10-1 M), kept frozen and diluted immediately prior to the experiment at the desired concentration. Compounds were prepared as stock solution (10-1M) in OR2 and then diluted in the recording medium to obtain the desired test concentration. Stock solution for Compound-1 was made in OR2 at pH 5 adjusted with HCl. To assess that dilution at the final concentration of this stock solution introduced no significant changes, the pH of the final solution was confirmed using a colorimetric assay (Galietta L. J. V., et al. 2001. FEBS Letters 499: 220-224. Kruger W., et al. (2005). Neuroscience Letters 380: 340-345.)
(§2) To better understand the impact of the heterologous domains that had been inserted into the channels, the ligand-dependent response profiles of wild type α7-nAChR and various engineered chimeric LGIC receptors to acetylcholine as well as to non-native ligands TC-6987, AZD-0328, and Facinicline/RG3487 were assessed. Receptors were transiently expressed in […] cells and currents were measured on an automated patch clamp system (Fluxion Biosciences) following 1 second addition of drug. Inclusion of a GlyRα1 Cys-loop sequence in the extracellular domain increased the potency of all small molecules on the engineered receptor (leftward shift in EC50) (e.g. SEQ ID NO:35, FIG. 4C vs SEQ ID NO:16, FIG. 4B). […] Inclusion of both the Cys-loop and β1-β2 loop sequences of GlyRα1 in the extracellular domain reduced the sensitivity by about 1 log from that observed with the full Cys-loop sequence alone, but further increased conductance approximately 2-fold and slowed the rate of deactivation of the channel (SEQ ID NO:41, FIG. 4E vs. SEQ ID NO:33, FIG. 4D).

[2] = target: T2, engineered chimeric LGIC receptor SEQ ID NO:41 (as SEQ ID NO:33, further comprising the β1-β2 loop domain from GlyRα1) (Homo sapiens, UniProt P36544, F159M/H163T/I152M/K68T/N69T/Q70M/R155K/V154L/W156N/Y151P); test: as above; format: cell-based; details: FIG. 5
T2 construct: expressed in transfected cells; host or cells: Xenopus oocytes (cDNA injection)
T2 sequence (P36544 with tags, fused parts or gaps K68T/N69T/Q70M/Y151P/I152M/V154L/R155K/W156N/F159M/H163T): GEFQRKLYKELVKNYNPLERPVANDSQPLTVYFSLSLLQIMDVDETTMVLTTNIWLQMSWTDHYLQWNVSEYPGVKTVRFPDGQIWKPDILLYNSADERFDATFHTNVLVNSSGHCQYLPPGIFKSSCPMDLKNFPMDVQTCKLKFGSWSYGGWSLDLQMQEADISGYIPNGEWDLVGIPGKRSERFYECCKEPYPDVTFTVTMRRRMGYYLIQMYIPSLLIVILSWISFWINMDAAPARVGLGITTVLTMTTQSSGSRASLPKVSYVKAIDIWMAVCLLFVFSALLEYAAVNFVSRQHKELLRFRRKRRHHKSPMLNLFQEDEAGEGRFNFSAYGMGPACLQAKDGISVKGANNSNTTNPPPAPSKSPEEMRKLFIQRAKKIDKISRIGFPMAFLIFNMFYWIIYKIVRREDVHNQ
Method: as §1, §2

[3] = tested on: spared nerve injury (SNI) model; test: Spared nerve injury (SNI) model of neuropathic pain, mechanical withdrawal threshold (von Frey, up-down method) after AAV.hSYN-α7-nAChR/GlyRα1 injection; format: in vivo, rat; details: single IP injection
Excerpt: Eight expression cassettes are constructed using standard molecular biology techniques. All contain a human synapsin-1 (hSYN) promoter linked to engineered chimeric receptors comprising a ligand binding domain of α7-nAChR and a Cys-loop domain and ion pore domain of GlyRα1. Their design is as follows:
These cassettes are subcloned into AAV bacmids, purified, transfected into Sf9 insect cells to produce recombinant bacuvlovirus, and then amplified. Sf9 cells are double infected using the amplified recombinant baculovirus containing the hSYN-α7-nAChR/GlyRα1 cassettes and another recombinant baculovirus containing the Rep and AAV6(Y705+731F+T492V) Cap genes to produce recombinant AAV vectors. The viral vectors are purified, viral titer determined using qPCR, and SDS-PAGE used to verify the purity of AAV vectors.
To produce mechanical hypersensitivity in a model that mimics a neuropathic pain condition, the spared nerve injury (SNI) model (a validated model of mechanical allodynia) is used (Shields et al., 2003, The Journal of Pain, 4, 465-470). This model is produced by the sectioning of the common peroneal and the sural nerves and isolating the tibial branch. Mechanical withdrawal threshold is assessed by placing rats on an elevated wire-mesh grid and stimulating the plantar surface of the hind paw with von Frey filaments.
A dorsal hemilaminectomy is made at the level of the lumbar enlargement to expose two segments (about 1.5-2 mm) of lumbar spinal cord, after which the dura mater is incised and reflected. The viral solution is loaded into a glass micropipette (prefilled with mineral oil). The micropipette is connected to a manual micro-injector mounted on a stereotactic apparatus. The viral solution is targeted to the dorsal horn (left side). Along the rostro-caudal axis within the exposed region, 6 injections of 240 nl each are performed, in an equidistant linear fashion. After each injection, 1 min of resting time is observed and then the muscle layer is sutured, the skin closed with staples, and the animals were allowed to recover with heated-pad before they were returned to their home cages. Animals are perfused for histological analysis after the last behavior test.
The injection is performed with a borosilicate glass capillary (0.78/1 mm internal/external diameters) pulled to a fine point, attached by polyethylene tubing (0.4/0.8 mm internal/external diameters) to a syringe mounted in a microinjection pump. The needle is mounted on an extended arm of a stereotaxic frame swung to the outside (used to hold and manipulate the needle only). Tubing, syringe, and needle are all filled with water. One microliter air is taken up into the needle followed by 3 μL of the viral vector solution. The needle is loaded separately with this volume for each injection. Animals are anesthetized prior to surgery. Following an incision along the dorsal midline, the L4 and L5 DRG are exposed by removal of the lateral processes of the vertebrae. The epineurium lying over the DRG is opened, and the glass needle inserted into the ganglion, to a depth of 400 μm from the surface of the exposed ganglion. After a 3-minute delay to allow sealing of the tissue around the glass capillary tip, 1.1 μL virus solution was injected at a rate of 0.2 μL/minute. After a further delay of 2 minutes, the needle is removed. The L4 ganglion is injected first followed by the L5 ganglion. The muscles overlying the spinal cord are loosely sutured together with a 5-0 suture and the wound closed. Animals are allowed to recover at 37° C. and received postoperative analgesia.
Rats are first anesthetized and then placed vertically with their head fixed in a stereotaxic frame. An incision is made in the base of the neck to expose the groove in the nuchal crest. An incision is made (1-2 mm) in the cisternal membrane to a depth such that cerebrospinal fluid leaks out. […]

T1 sequence (P36544 with tags, fused parts or gaps Y151P/I152M/V154L/R155K/W156N/F159M/H163T): as the sequence (P36544 with tags, fused parts or gaps K68T/N69T/Q70M/Y151P/I152M/V154L/R155K/W156N/F159M/H163T) above, with T46K, T47N, M48Q counted along it

`O=C(N[C@@H]1C2CCN(CC2)[C@H]1Cc1cccnc1)c1cc(F)cc(F)c1` [TC-6987] was tested, and the “sensitivity of SEQ ID NO:33 to ligand compared with wild type α7-nAChR” value ([1]; Xenopus oocytes, FIG. 5) was “approximately as sensitive”, the “agonist activity on SEQ ID NO:33” value ([1]; similar to wild type) was “partial agonist activity” and the “sensitivity of SEQ ID NO:41 to ligand compared with wild type α7-nAChR” value [2] was “comparably sensitive”.

With `O=C(N[C@@H]1CN2CCC1CC2)c1n[nH]c2ccccc12` [Facinicline/RG3487] the “fold more sensitive than wild type α7-nAChR” value ([1]; Xenopus oocytes, FIG. 5) was about 10 fold, the “EC50 on SEQ ID NO:41 fold lower (left shifted) than for wild type” value [2] was “approximately 2 fold” and the “sensitivity of SEQ ID NO:41 compared with SEQ ID NO:33” value [2] was “less sensitive”. The “reversal of mechanical hypersensitivity” value ([3]; high dose of ligand, all rats (Chimera 1-8)) was “complete reversal”, the “reversal of mechanical hypersensitivity” value ([3]; low dose, rats receiving Chimera 1, 2, 4, 5, 6 and 8) was “complete reversal” and the “reversal of mechanical hypersensitivity” value ([3]; low dose, rats receiving Chimera 3 and 7) was “partial reversal”.

With `CN1CCCC1c1cccnc1` (stereo not shown) [nicotine] the “fold less sensitive than wild type α7-nAChR” value ([1]; Xenopus oocytes, FIG. 5) was “approximately 2 fold” and the “EC50 on SEQ ID NO:41 fold larger (right shifted) than for wild type” value [2] was about 7 fold.

For `c1ccc(-c2nnc(O[C@@H]3C4CC5C[C@H]3CN(C5)C4)s2)cc1` [ABT-126], the “sensitivity of SEQ ID NO:33 to ligand compared with wild type α7-nAChR” value ([1]; Xenopus oocytes, FIG. 5) was “approximately as sensitive” and the “sensitivity of SEQ ID NO:41 to ligand compared with wild type α7-nAChR” value [2] was “comparably sensitive”.

From patent US10538571B2, “Compositions and methods for neurological diseases” (Coda Biotherapeutics, Inc., priority 2017, dated 2020)
